Measured values: ChEMBL document CHEMBL5543168, “Discovery of Urea Derivatives of Celastrol as Selective Peroxiredoxin 1 Inhibitors against Colorectal Cancer Cells” (J Med Chem, 2024)
The source made the active and inactive calls. No cut-off for these calls is given here.

Legend:
[1] = Acute toxicity in C57BL/[…] 6J mouse assessed as body weight loss at 20 mg/kg, ip measured for 2 weeks; format: organism-based; settings: in vivo, 336 h
[2] = AUC (0 to infinity) in mouse at 2 mg/kg, iv measured for 24 hrs by LC-MS/MS analysis; format: ADME, organism-based; settings: in vivo
Peroxiredoxin-6 = biological target: T1, Peroxiredoxin-6 (Homo sapiens, UniProt P30041); test: Inhibition of recombinant PRDX6 (unknown origin) using H2O2 as substrate preincubated for 0.5 hrs followed by substrate addition by TRX-TrxR-NADPH coupling assay
T1 sequence (P30041 whole entry): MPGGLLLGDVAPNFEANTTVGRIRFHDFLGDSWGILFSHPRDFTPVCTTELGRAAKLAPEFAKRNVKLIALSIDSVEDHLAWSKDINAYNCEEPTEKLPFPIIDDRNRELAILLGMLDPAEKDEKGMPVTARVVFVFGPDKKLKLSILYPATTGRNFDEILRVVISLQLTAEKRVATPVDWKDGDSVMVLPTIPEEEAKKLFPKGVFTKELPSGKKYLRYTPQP

[3] = Selectivity ratio of IC50 for mouse […] cells to IC50 for human SW620 cells; format: functional
SW-620 [4] = test: cells; settings: Homo sapiens, SW-620, 48 h, read-out: Activity
Description: Induction of apoptosis in human SW620 cells assessed as viable cells at 1 uM incubated for 48 hrs by Annexin V-FITC/PI staining based flow cytometry (Rvb = 90.7 %)

[5] = Antiproliferative activity against human LX2 cells; format: toxicity, cell-based, LX-2
[6] = Acute toxicity in C57BL/[…] 6J mouse assessed as pathological change in spleen at 20 mg/kg, ip measured for 2 weeks by H and E staining based analysis; format: organism-based; settings: in vivo, 336 h
[7] = biological target: T2, Peroxiredoxin-1 (Homo sapiens) (UniProt Q06830)
T2 sequence (whole entry): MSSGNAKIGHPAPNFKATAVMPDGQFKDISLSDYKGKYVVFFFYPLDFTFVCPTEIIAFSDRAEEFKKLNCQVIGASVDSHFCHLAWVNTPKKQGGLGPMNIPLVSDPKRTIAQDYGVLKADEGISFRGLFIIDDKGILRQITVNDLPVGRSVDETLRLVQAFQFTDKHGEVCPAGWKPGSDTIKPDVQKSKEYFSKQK
Description: Binding affinity to recombinant PRDX1 (unknown origin)assessed as change in melting temperature by protein thermal shift assay

SW-620 [8] = test: Induction of DNA damage in human SW620 cells assessed as increase in gamma-H2AX level incubated for 48 hrs by Western blot analysis; format: functional, cell-based; settings: dose 0.25-2 µM
SW-620 [9] = test: Induction of mitochondrial membrane potential depolarization in human SW620 cells assessed as reduction in red fluorescence incubated for 48 hrs by JC1-staining based CLSM analysis; format: functional, cell-based; settings: dose 0.5-2 µM
[10] = AUC (0 to t) in mouse at 2 mg/kg, iv measured for 24 hrs by LC-MS/MS analysis; format: ADME, organism-based; settings: in vivo
SW-620 [11] = test: Induction of cell cycle arrest at G2 phase in human SW620 cells at 2 uM incubated for 24 hrs by PI staining based flow cytometry (reference value: 6.77 %); format: functional
[12] = Acute toxicity in C57BL/[…] 6J mouse assessed as pathological change in heart at 20 mg/kg, ip measured for 2 weeks by H and E staining based analysis; format: organism-based; settings: in vivo, 336 h
[13] = Acute toxicity in C57BL/[…] 6J mouse assessed as pathological change in liver at 20 mg/kg, ip measured for 2 weeks by H and E staining based analysis; format: organism-based; settings: in vivo, 336 h
[14] = Antiproliferative activity against HEK293T cells; format: toxicity, cell-based, HEK-293T; settings: human
[15] = Acute toxicity in C57BL/[…] 6J mouse assessed as pathological change in kidney at 20 mg/kg, ip measured for 2 weeks by H and E staining based analysis; format: organism-based; settings: in vivo, 336 h
[16] = Clearance in mouse at 2 mg/kg, iv measured for 24 hrs by LC-MS/MS analysis; format: ADME, organism-based; settings: in vivo
SW-620 [17] = test: Inhibition of cell viability in human SW620 cells incubated for 72 hrs by Cell Titer Glo assay; format: functional, cell-based; settings: SW-620, 72 h
SW-620 [18] = test: Induction of mitochondrial membrane potential depolarization in human SW620 cells assessed as decrease in JC-1-stained red cells incubated for 48 hrs by flow cytometry; format: functional, cell-based; settings: dose 0.5-2 µM
HCT-116 = test: Inhibition of cell viability in human HCT-116 cells incubated for 72 hrs by Cell Titer Glo assay; format: functional, cell-based; settings: HCT-116, 72 h
SW-620 [19] = test: Induction of mitochondrial membrane potential depolarization in human SW620 cells assessed as JC-1-stained red cells upto 2 uM incubated for 48 hrs by flow cytometry (reference value: 89.8 %); format: functional; settings: up to 2 µM
[20] = Selectivity ratio of IC50 for HEK293T cells to IC50 for human SW620 cells; format: functional
Peroxiredoxin-4 = biological target: T3, Peroxiredoxin-4 (Homo sapiens, UniProt Q13162); test: Inhibition of recombinant PRDX4 (unknown origin) using H2O2 as substrate preincubated for 0.5 hrs followed by substrate addition by TRX-TrxR-NADPH coupling assay
T3 sequence (Q13162 whole entry): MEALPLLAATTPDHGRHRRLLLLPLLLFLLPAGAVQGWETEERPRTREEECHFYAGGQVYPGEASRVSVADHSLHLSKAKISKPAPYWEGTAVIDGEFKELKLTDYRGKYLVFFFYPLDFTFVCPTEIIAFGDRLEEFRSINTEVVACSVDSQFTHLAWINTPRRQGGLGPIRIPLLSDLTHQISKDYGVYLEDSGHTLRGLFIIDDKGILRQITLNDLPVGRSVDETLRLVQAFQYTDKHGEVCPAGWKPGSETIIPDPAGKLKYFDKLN

SW-620 [21] = test: Induction of apoptosis in human SW620 cells assessed as increase in Cyt C level incubated for 48 hrs by Western blot analysis; format: functional, cell-based; settings: dose 0.25-2 µM
[22] = Selectivity ratio of IC50 for mouse […] cells to IC50 for human HCT-116 cells; format: functional
Peroxiredoxin-1 = biological target: T4, Peroxiredoxin-1 (Homo sapiens, UniProt Q06830); test: Inhibition of recombinant PRDX1 (unknown origin) using H2O2 as substrate preincubated for 0.5 hrs followed by substrate addition by TRX-TrxR-NADPH coupling assay
T4 sequence (Q06830 whole entry): T2 sequence (whole entry)

[23] = biological target: T5, Thioredoxin-dependent peroxide reductase, mitochondrial (Homo sapiens, UniProt P30048); test: Inhibition of recombinant PRDX3 (unknown origin) using H2O2 as substrate preincubated for 0.5 hrs followed by substrate addition by TRX-TrxR-NADPH coupling assay
T5 sequence (P30048 whole entry): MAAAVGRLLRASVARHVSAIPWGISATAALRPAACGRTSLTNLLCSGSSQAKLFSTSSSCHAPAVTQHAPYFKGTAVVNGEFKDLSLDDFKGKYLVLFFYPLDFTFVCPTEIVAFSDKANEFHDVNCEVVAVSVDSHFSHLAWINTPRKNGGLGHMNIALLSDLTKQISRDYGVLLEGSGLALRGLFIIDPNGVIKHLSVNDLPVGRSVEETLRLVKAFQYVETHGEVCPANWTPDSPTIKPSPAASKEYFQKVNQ

SW-620 [24] = test: Antitumor activity against human SW620 cells xenografted in BALB/c nude mouse assessed as morphological change in vacuoles in tumor cells at 2 mg/kg, ip qd for 16 days by H and E staining based analysis; format: functional, organism-based; settings: time 16.0 day
[25] = Toxicity in BALB/c nude mouse xenografted with human SW620 cells assessed as body weight loss at 2 mg/kg, ip qd for 16 days; format: organism-based, SW-620; settings: in vivo, 384 h, time 16 day

## COC(=O)C1(NC(=O)N[C@]2(C)CC[C@]3(C)CC[C@]4(C)C5=CC=C6C(=CC(=O)C(O)=C6C)[C@]5(C)CC[C@@]4(C)[C@@H]3C2)CCC1
[1]
  Activity: Non-Toxic
[2]
  AUC(0-inf): 403 ng·h/mL
Peroxiredoxin-6
  IC50: > 50000 nM
[3]
  Selectivity ratio: 2
SW-620 [4]
  viability at 1 µM: 78.8%
[5]
  IC50: ~1000 nM
[6]
  Activity: Non-Toxic
[7]
  ΔTm: -7.5 °C
SW-620 [8]
  Activity: Dose-Dependent Effect
SW-620 [9]
  Activity: Dose-Dependent Effect
[10]
  AUC(0-t) at 24 h: 364 ng·h/mL
SW-620 [11]
  Activity: 17.4%
[12]
  Activity: Non-Toxic
[13]
  Activity: Non-Toxic
[14]
  IC50: ~1000 nM
[15]
  Activity: Non-Toxic
[16]
  clearance: 83.1 mL/min/kg
SW-620 [17]
  IC50: 320 nM
SW-620 [18]
  Activity: Dose-Dependent Effect
HCT-116
  IC50: 440 nM
SW-620 [19]
  Activity: 39.2%
[20]
  Selectivity ratio: 2
Peroxiredoxin-4
  IC50: > 50000 nM
SW-620 [21]
  Activity: Dose-Dependent Effect
[22]
  Selectivity ratio: 2
Peroxiredoxin-1
  IC50: 350 nM
[23]
  IC50: > 50000 nM
SW-620 [24]
  Activity: Active
[25]
  Activity: Non-Toxic
